# Reference: patent US20090197853A1, “METHODS AND COMPOSITIONS OF TREATING CANCER” (priority 2005, published 2009)
# “Also recorded” adds a separate entry of the source. Starred links: 1 amine or outer side, 2 acyl side, 3 side chain; linkers in the order of their positions; H or OH if unused. Positions of bridges follow the written chain, without caps; N, C: chain ends. Non-standard residues stand in square brackets, D forms with d. Residues, ends and D or L forms follow the SMILES beside them. Chains are numbered I, II in the order given. Actinocin(9to1) = Cc1c2oc3c(C)ccc(C(=O)[*:1])c3nc-2c(C(=O)[*:2])c(N)c1=O; NMeV = CN[C@H](C(=O)O)C(C)C; Sar = CNCC(=O)O
# Experiments:
# [1] = system: Ramos cells; experiment: Cell cycle analysis (BrdU / 7-AAD), Ramos; format: cell-based; details: for Cell cycle distribution / progression: Ramos; for BrdU incorporation into DNA: comparison treatments
# Description: Methods: […] Thirty minutes prior to harvest, cultures were treated with 5-bromo-2′-deoxyuridine (BrdU) at a final concentration of 10 μM. Cells were isolated by centrifugation, washing once with 0.5% BSA in PBS, and the resulting cell pellets fixed using 0.5 mL Cytofix/Cytoperm reagent (BD Biosciences). […] Cells were stained using a fluorescein-conjugated anti-BrdU antibody (clone PRB1, E-Bioscience, San Diego, Calif.) and 7-AAD. Cell cycle occupancy was analyzed by flow cytometry using fluorescein signal as a measure of DNA synthesis and 7-AAD signal as a measure of DNA content. […] L. Shepherd & Assoc., San Fernando, Calif.).
# [2] = system: Thioredoxin reductase; experiment: Lipoate reduction (thioredoxin reductase activity) in intact A549 cells; format: cell-based, human; details: A549; actinomycin D 2.5 μg/mL or cycloheximide 10 μg/mL 1 hour prior, BSO 100 μM 24 hours prior
# Description: Methods: Lipoate Reduction. Thioredoxin reductase activity was assessed by measuring the rate of lipoate reduction. In brief, A549 or PC3 cells (10,000 cells/well) were plated on 96-well plates and allowed to adhere overnight and grow two additional days until confluent. Cells were treated with MGd, zinc, or 5% mannitol for 2-4 hours, as indicated. Medium was removed, cells were washed with Hanks Balanced Salt Solution (HBSS), and a solution of 5 mM lipoic acid and 1 mM 5,5′-dithiobis(2-nitrobenzoic acid) in HBSS (100 μL/well) was added. Plates were incubated at ambient temperature in the dark. At chosen time intervals, plate absorbance was measured at 405-650 nm. Plate absorbances were normalized to wells containing neither exogenous zinc nor texaphyrin complex to allow plate-to-plate comparison. In some experiments, L-buthionine-[S,R]-sulfoximine (BSO, 100 μM) was added 24 hours prior to MGd or zinc treatment, to inhibit any contribution to lipoate reduction made by glutathione-dependent pathways (28). Actinomycin D (2.5 μg/mL) or cycloheximide (10 μg/mL), where present, was added 1 hour prior to texaphyrin or zinc treatment. Viability was checked on parallel plates using the tetrazolium dye 3-(4,5-dimethylthiazol-2-yl)-5-(3-carboxymethoxyphenyl)-2-(4-sulfophenyl)-2H-tetrazolium (MTS) following the manufacturers protocol (Promega Corp.).
# [3] = system: metallothionein gene family members and ZnT1; experiment: Northern blot analysis, A549 cultures; format: cell-based, human; details: for Metallothionein transcript levels: A549, 24 hours, 50 μM MGd, Zn(OAc)2 100 μM, CdCl2 50 μM, FIG. 2B
# Description: Methods: Northern Blot Analysis—Plateau phase cultures of A549 cells were prepared as described above, except that T-25 flasks were used, and the number of cells initially plated scaled accordingly. Cultures were treated with 50 μM MGd, 5 μM Gd(OAc)3 or 5% mannitol for 4 hours, whereupon cultures were washed twice with PBS and RNA harvested as above. Alternatively, 7-day plateau phase A549 or PC3 cultures were treated with 50 μM MGd, 50-100 μM Zn(OAc)2, 50 μM CdCl2 or 5% mannitol for 24 hours (A549) or 4 hours (PC3) prior to washing and RNA analysis. Exponential phase Ramos cultures were treated for 6 hours. Northern blots were conducted and analyzed. Radio labeled metallothionein probe, designed to bind to a 113-bp region of 3′-UTR sequences from multiple metallothionein gene family members, was generated using 5′-[…]-3′ (forward) and 5′-[…]-3′ (reverse) PCR primers and the NEBlot kit (New England Biolabs, Inc.). Radio labeled ZnT1 probe was generated in a similar fashion using 5′-[…]-3′ (forward) and 5′-[…]-3′ (reverse) primers.
# [4] = system: A549 cells; experiment: Cell viability by propidium iodide exclusion, A549; details: A549, 24 hours; Zn(OAc)2 100 μM, CdCl2 50 μM, MGd 50 μM
# Description: Methods: Cellular Viability. Cell viability was determined by using propidium iodide (PI) flow cytometric analysis. Cells from plateau phase cultures grown in T-25 flasks were harvested as described above, except that cells present in the growth medium and wash solution were isolated by centrifugation and included in the analysis. Cells were resuspended in 1 mL PBS, an aliquot of 3×10^5 cells transferred to a 4 mL tube, and the cells isolated by centrifugation. Cell pellets were resuspended in PBS supplemented with 2 μg/mL propidium iodide (Sigma), incubated for 5 minutes at ambient temperature, and subjected to flow cytometric analysis. Flow cytometry was performed on a FACSCalibur instrument and data were analyzed using the CellQuest Pro software package (BD Biosciences).
# [5] = system: HIF-1α; experiment: HIF-1α sandwich ELISA, Ramos; format: cell-based; details: four hours
# Description: Methods: Total HIF-1α protein was detected by sandwich ELISA using the DuoSet IC™ HIF-1α ELISA kit obtained from R&D Systems (Minneapolis, Minn.). All incubations were carried out at ambient temperature. Briefly, 96-well plates were coated with HIF-1α capture antibody overnight prior to blocking with 5% BSA in wash buffer. Protein lysates (50 μg protein per well prepared according to the manufacturer's instructions) were added for 2 hours, whereupon plates were washed and a biotinylated detection antibody specific for HIF-1α was added. A streptavidin-horseradish peroxidase format was used for detection. The optical density at 450 minus […] was measured using a microplate reader (SpectraMax Plus, Molecular Devices, Palo Alto, Calif.). HIF-1α concentrations were calculated by linear regression using a standard curve prepared from HIF-1α standard supplied with the ELISA kit.
# [6] = system: Ramos cells; experiment: Reactive oxygen species (DCFA to DCF), Ramos; format: cell-based; details: single agents
# Description: Methods: Reactive oxygen species were measured in live cells as intracellular peroxides by monitoring the oxidation of 2′,7′-dichlorofluorescin-diacetate (DCFA) to 2′,7′-dichlorofluorescein (DCF) (Molecular Probes). Cells (1×10^6 per mL) were incubated in a solution of 1 μg per mL DCFA in 0.5% BSA in HBSS for 15 minutes at 37° C. Two mL additional 0.5% BSA in HBSS was added, cells were isolated by centrifugation, and the pellet re-suspended in a solution of 50 μg/mL 7-aminoactinomycin D (7-AAD) in 0.5% BSA in HBSS. Cell suspensions were incubated at ambient temperature for 2 to 3 minutes, and stored on ice until analysis. The fluorescent intensity in live (i.e., 7-AAD impermeable) cells was analyzed by flow cytometry.
# [7] = system: Ramos cells; experiment: Intracellular free zinc (FluoZin-3 fluorescence), Ramos; format: cell-based; details: hydrogen peroxide treatment
# Description: Methods: Intracellular Free Zinc. The concentration of intracellular free zinc was assessed using the ion-specific fluorescent probe, FluoZin-3-AM™ (FluoZin-3, Molecular Probes, Inc.). […] Following treatment, cells were isolated by centrifugation. Cell pellets were washed and re-suspended in a solution of 0.5% BSA in PBS.
structure (smiles),measurement,setting,value
O=c1[nH]c(=O)n([C@H]2C[C@H](O)[C@@H](CO)O2)cc1F [5-fluoro-2′-deoxyuridine],Cell cycle distribution / progression,[1],accumulation of cells in G1/S
same,BrdU incorporation into DNA,[1],permitted BrdU incorporation into DNA
"CCCCS(=N)(=O)CCC(N)C(=O)O [BSO, L-buthionine-[S,R]-sulfoximine, reference compound]",Effect of pre-treatment on the inhibition of lipoate reduction by MGd and zinc,[2],increased the degree of inhibition
"[Cl][Cd][Cl] [CdCl2, reference compound]",Metallothionein transcript levels,[3],significant increase
same,Metallothionein transcript levels,[3]; listed as cadmium,raised; also recorded: high levels of metallothionein transcription
same,Cellular viability (propidium iodide exclusion),[4],ca. 53%
"CC(=O)[O-].CC(=O)[O-].CC(=O)[O-].[Gd+3] [Gd(OAc)3, gadolinium acetate, reference compound]",Induction of metallothionein gene family members and ZnT1 (Northern blot),"[3]; A549 plateau phase, 4 hours, 50 μM MGd or 5 μM Gd(OAc)3",induced only in cultures treated with MGd
"Cc1c2oc3c(C)ccc(C(=O)N[C@@H]4C(=O)N[C@H](C(C)C)C(=O)N5CCC[C@H]5C(=O)N(C)CC(=O)N(C)[C@@H](C(C)C)C(=O)O[C@@H]4C)c3nc-2c(C(=O)N[C@@H]2C(=O)N[C@H](C(C)C)C(=O)N3CCC[C@H]3C(=O)N(C)CC(=O)N(C)[C@@H](C(C)C)C(=O)O[C@@H]2C)c(N)c1=O [actinomycin D, reference compound] (I: T[dV]P[Sar][NMeV] / II: T[dV]P[Sar][NMeV]; ester I:1-I:C, II:1-II:C; linker I:N-II:N via Actinocin(9to1))",Effect of pre-treatment on the inhibition of lipoate reduction by MGd and zinc,[2],restored the inhibitory effect
CC(=O)[O-].CC(=O)[O-].[Co+2] [cobalt acetate],Increase in total cellular HIF-1α levels,[5],increased
"C[C@@H]1C[C@@H]([C@H](O)CC2CC(=O)NC(=O)C2)C(=O)[C@@H](C)C1 [cycloheximide, reference compound]",Effect of pre-treatment on the inhibition of lipoate reduction by MGd and zinc,[2],restored the inhibitory effect
"OO [hydrogen peroxide, reference compound]",DCF signal,[6],increased
same,FluoZin-3 fluorescence,[7],increased
NC(=O)NO [hydroxyurea],Cell cycle distribution / progression,[1],allowed passage through G2M
same,BrdU incorporation into DNA,[1],inhibited BrdU incorporation
